# According to ChEMBL document CHEMBL5705884, “Breaching the DNA damage checkpoint via PF-00477736, a novel small-molecule inhibitor of checkpoint kinase 1” (Mol Cancer Ther, 2008):
# Tests used:
# [1] = target: Vascular endothelial growth factor receptor 2 (Homo sapiens, UniProt P35968); test: Binding affinity to VEGFR2 (unknown origin) assessed as inhibition constant
# [2] = target: Macrophage colony-stimulating factor 1 receptor (Homo sapiens, UniProt P07333); test: Inhibition of Fms (unknown origin)
# [3] = Clearance in Sprague-Dawley rat plasma at 4 mg/kg, iv administered as bolus dose by LCMS analysis; type: ADME, organism-based
# HT-29 [4] = test: Induction of apoptosis in gemcitabine induced human HT-29 cells assessed as apoptotic cell death measured after 24 hrs by PI staining based flow cytometry analysis (reference value: 0.7%); type: functional
# HT-29 [5] = test: Cytotoxicity in human HT-29 cells assessed as cell survival at 360 nM measured after 4 to 48 hrs by coulter counter method relative to control; type: functional; details: time 4-48 hrs, read-out: Activity
# HT-29 [6] = test: Potentiation of gemcitabine induced cytotoxicity in human HT-29 cells assessed as cell survival at 360 nM measured after 4 to 48 hrs by coulter counter method relative to gemcitabine alone; type: functional; details: time 4-48 hrs, read-out: Activity
# COLO 205 [7] = test: Antiproliferative activity against human COLO 205 cells deficit of p53 expression assessed as inhibition of cell growth measured after 96 hrs by MTT assay; type: functional, cell-based; details: COLO 205, 96 h
# K562 [8] = test: Antiproliferative activity against human K562 cells deficit of p53 expression assessed as inhibition of cell growth measured after 96 hrs by MTT assay; type: functional, cell-based; details: K562, 96 h
# HT-29 [9] = test: Potentiation factor, ratio of IC50 for human HT-29 cells to IC50 for human HT-29 cells in presence of SN-38; type: functional
# HT-29 [10] = test: Potentiation factor, ratio of IC50 for human HT-29 cells to IC50 for human HT-29 cells in presence of doxorubicin; type: functional
# COLO 205 [11] = test: Potentiation factor, ratio of IC50 for human COLO 205 cells to IC50 for human COLO 205 cells in presence of gemcitabine; type: functional
# MDA-MB-231 [12] = test: Potentiation factor, ratio of IC50 for human MDA-MB-231 cells to IC50 for human MDA-MB-231 cells in presence of SN-38; type: functional
# MDA-MB-231 [13] = test: Potentiation factor, ratio of IC50 for human MDA-MB-231 cells to IC50 for human MDA-MB-231 cells in presence of carboplatin; type: functional
# K562 [14] = test: Potentiation factor, ratio of IC50 for human K562 cells to IC50 for human K562 cells in presence of gemcitabine; type: functional
# HT-29 [15] = test: Inhibition of gemcitabine induced cell cycle arrest in human HT-29 cells assessed as decrease in CDK1 phosphorylation level at 360 nM by immunoblot analysis; type: functional, cell-based; details: time 2-24 hrs
# COLO 205 [16] = test: Antitumor activity against human COLO 205 cells xenografted in athymic nude mouse model assessed as tumor growth inhibition at 15 mg/kg, ip administered twice daily in presence of gemcitabine (Gemcitabine alone = 40%); type: functional; details: read-out: TGI
# COLO 205 [17] = test: Antitumor activity against human COLO 205 cells xenografted in athymic nude mouse model assessed as tumor growth inhibition at 20 mg/kg, ip administered once daily in presence of gemcitabine (Gemcitabine alone= 58%); type: functional; details: read-out: TGI
# COLO 205 [18] = test: Antitumor activity against human COLO 205 cells xenografted in athymic nude mouse model assessed as tumor growth inhibition at 12 mg/kg, ip administered once daily in presence of gemcitabine (Gemcitabine alone= 58%); type: functional; details: read-out: TGI
# COLO 205 [19] = test: Antitumor activity against human COLO 205 cells xenografted in athymic nude mouse model assessed as tumor growth inhibition at 4 mg/kg, ip administered twice daily in presence of gemcitabine (Gemcitabine alone= 58%); type: functional; details: read-out: TGI
# COLO 205 [20] = test: Antitumor activity against human COLO 205 cells xenografted in athymic nude mouse model assessed as potentiated tumor growth inhibition at 12 mg/kg, ip administered once daily in presence of gemcitabine relative to control; type: functional; details: read-out: TGI
# COLO 205 [21] = test: Antitumor activity against human COLO 205 cells xenografted in athymic nude mouse model assessed as potentiated tumor growth inhibition at 20 mg/kg, ip administered once daily in presence of gemcitabine relative to control; type: functional; details: read-out: TGI
# COLO 205 [22] = test: Antitumor activity against human COLO 205 cells xenografted in athymic nude mouse model assessed as potentiated tumor growth inhibition at 24 mg/kg, ip administered twice daily in presence of gemcitabine relative to control; type: functional; details: read-out: TGI
# COLO 205 [23] = test: Antitumor activity against human COLO 205 cells xenografted in athymic nude mouse model assessed as potentiated tumor growth inhibition at 7.5 mg/kg, ip administered once daily in presence of gemcitabine relative to control; type: functional; details: read-out: TGI
# COLO 205 [24] = test: Antitumor activity against human COLO 205 cells xenografted in athymic nude mouse model assessed as potentiated tumor growth inhibition at 15 mg/kg, ip administered once daily in presence of gemcitabine relative to control; type: functional; details: read-out: TGI
# COLO 205 [25] = test: Antitumor activity against human COLO 205 cells xenografted in athymic nude mouse model assessed as potentiated tumor growth inhibition at 30 mg/kg, ip administered once daily in presence of gemcitabine relative to control; type: functional; details: read-out: TGI
# COLO 205 [26] = test: Antitumor activity against human COLO 205 cells xenografted in athymic nude mouse model assessed as potentiated tumor growth inhibition at 30 mg/kg, ip administered twice daily in presence of gemcitabine relative to control; type: functional; details: read-out: TGI
# COLO 205 [27] = test: Antitumor activity against human COLO 205 cells xenografted in athymic nude mouse model assessed as tumor growth delay by measuring test to control tumor ratio at 7.5 mg/kg, ip administered once daily in presence of gemcitabine (Gemcitabine alone = 3%); type: functional
# COLO 205 [28] = test: Antitumor activity against human COLO 205 cells xenografted in athymic nude mouse model assessed as tumor growth delay by measuring test to control tumor ratio at 7.5 mg/kg, ip administered twice daily in presence of gemcitabine (Gemcitabine alone = 3%); type: functional
# COLO 205 [29] = test: Antitumor activity against human COLO 205 cells xenografted in athymic nude mouse model assessed as gross log cell kill at 4 mg/kg, ip administered once daily in presence of gemcitabine (Gemcitabine alone = 0.5%); type: functional
# COLO 205 [30] = test: Antitumor activity against human COLO 205 cells xenografted in athymic nude mouse model assessed as gross log cell kill at 4 mg/kg, ip administered twice daily in presence of gemcitabine (Gemcitabine alone = 0.5%); type: functional
# COLO 205 [31] = test: Antitumor activity against human COLO 205 cells xenografted in athymic nude mouse model assessed as gross log cell kill at 12 mg/kg, ip administered once daily in presence of gemcitabine (Gemcitabine alone = 0.5%); type: functional
# COLO 205 [32] = test: Antitumor activity against human COLO 205 cells xenografted in athymic nude mouse model assessed as gross log cell kill at 40 mg/kg, ip administered twice daily in presence of gemcitabine (Gemcitabine alone = 0.5%); type: functional
# COLO 205 [33] = test: Antitumor activity against human COLO 205 cells xenografted in athymic nude mouse model assessed as gross log cell kill at 30 mg/kg, ip administered once daily in presence of gemcitabine (Gemcitabine alone = 0.27%); type: functional
# COLO 205 [34] = test: Antitumor activity against human COLO 205 cells xenografted in athymic nude mouse model assessed as gross log cell kill at 7.5 mg/kg, ip administered twice daily in presence of gemcitabine (Gemcitabine alone = 0.27%); type: functional
# [35] = Toxicity in athymic nude mouse assessed as effect on body weight at 4 to 20 mg/kg, ip administered once daily in presence of gemcitabine; type: organism-based; details: in vivo, dose 4-20 mg/kg
# Sequence of Macrophage colony-stimulating factor 1 receptor (P07333 whole entry): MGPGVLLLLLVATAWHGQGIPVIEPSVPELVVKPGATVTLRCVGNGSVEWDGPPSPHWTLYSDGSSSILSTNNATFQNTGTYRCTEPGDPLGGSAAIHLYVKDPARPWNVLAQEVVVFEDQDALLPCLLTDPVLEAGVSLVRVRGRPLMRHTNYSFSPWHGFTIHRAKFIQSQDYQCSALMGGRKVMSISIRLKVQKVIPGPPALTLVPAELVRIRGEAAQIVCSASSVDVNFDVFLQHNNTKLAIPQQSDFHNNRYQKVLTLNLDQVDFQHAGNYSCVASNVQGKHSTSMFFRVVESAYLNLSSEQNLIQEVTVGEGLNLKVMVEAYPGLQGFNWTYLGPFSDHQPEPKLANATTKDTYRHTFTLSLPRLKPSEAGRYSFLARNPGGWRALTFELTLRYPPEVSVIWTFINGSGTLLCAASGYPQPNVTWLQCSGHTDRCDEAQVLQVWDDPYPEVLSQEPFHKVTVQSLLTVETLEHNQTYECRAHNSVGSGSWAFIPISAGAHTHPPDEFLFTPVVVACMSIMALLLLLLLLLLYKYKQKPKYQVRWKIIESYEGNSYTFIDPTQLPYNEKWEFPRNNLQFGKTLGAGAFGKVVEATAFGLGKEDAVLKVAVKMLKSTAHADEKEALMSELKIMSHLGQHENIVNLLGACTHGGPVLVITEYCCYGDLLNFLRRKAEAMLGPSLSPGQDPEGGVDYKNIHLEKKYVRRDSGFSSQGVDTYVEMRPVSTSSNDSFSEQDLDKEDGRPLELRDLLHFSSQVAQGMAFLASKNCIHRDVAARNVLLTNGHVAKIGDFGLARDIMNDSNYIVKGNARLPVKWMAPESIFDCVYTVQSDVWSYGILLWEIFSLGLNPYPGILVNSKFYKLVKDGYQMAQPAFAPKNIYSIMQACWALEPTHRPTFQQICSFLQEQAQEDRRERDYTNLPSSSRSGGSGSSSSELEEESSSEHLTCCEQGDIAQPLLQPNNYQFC
# Sequence of Vascular endothelial growth factor receptor 2 (P35968 whole entry): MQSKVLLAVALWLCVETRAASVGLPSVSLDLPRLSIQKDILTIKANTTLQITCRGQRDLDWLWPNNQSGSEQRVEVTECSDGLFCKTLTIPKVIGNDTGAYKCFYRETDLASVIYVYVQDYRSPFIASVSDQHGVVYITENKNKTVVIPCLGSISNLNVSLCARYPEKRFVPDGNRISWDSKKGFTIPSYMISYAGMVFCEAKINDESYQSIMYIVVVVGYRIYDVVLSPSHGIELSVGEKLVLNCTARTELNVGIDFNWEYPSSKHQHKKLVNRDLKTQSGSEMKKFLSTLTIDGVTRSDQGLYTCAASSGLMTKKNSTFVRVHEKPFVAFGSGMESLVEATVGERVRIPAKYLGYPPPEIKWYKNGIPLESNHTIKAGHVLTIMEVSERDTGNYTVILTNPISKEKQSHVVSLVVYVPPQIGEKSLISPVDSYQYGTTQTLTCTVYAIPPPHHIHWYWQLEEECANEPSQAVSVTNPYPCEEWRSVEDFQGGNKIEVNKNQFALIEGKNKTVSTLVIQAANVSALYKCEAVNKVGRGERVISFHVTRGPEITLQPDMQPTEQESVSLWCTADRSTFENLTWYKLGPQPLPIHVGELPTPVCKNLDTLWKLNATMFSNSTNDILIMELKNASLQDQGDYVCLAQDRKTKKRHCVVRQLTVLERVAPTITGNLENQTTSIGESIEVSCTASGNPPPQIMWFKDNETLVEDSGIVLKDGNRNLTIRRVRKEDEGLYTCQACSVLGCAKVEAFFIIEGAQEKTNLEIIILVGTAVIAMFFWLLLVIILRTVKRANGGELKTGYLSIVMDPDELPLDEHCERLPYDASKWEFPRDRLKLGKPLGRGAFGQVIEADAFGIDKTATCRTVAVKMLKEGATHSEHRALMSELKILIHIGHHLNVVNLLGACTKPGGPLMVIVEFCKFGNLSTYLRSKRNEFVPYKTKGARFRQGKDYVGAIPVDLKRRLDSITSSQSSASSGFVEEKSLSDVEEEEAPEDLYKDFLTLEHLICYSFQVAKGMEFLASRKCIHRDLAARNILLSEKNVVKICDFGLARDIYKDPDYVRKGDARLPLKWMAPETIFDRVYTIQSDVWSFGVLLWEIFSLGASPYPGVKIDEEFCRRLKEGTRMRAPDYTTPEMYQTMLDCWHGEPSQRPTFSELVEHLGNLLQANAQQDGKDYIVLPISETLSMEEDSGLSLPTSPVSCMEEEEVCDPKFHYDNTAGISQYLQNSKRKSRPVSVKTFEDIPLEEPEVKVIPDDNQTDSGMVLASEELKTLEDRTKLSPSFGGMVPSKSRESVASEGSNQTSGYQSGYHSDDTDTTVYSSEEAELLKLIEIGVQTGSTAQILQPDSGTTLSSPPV
structure (smiles),measurement,setting,value
Cn1cc(-c2[nH]c3cc(NC(=O)[C@H](N)C4CCCCC4)cc4c3c2C=NNC4=O)cn1,Ki,[1],16 nM
same,IC50,[2],20 nM
same,clearance,[3],11.8 mL/min/kg
same,Activity,HT-29 [4],5.2%
same,viability at 0.36 µM,HT-29 [5],93%
same,viability at 0.36 µM,HT-29 [6],71%
same,IC50,COLO 205 [7],1300 nM
same,IC50,K562 [8],420 nM
same,PF50,HT-29 [9],3.7
same,PF50,HT-29 [10],2.2
same,PF50,COLO 205 [11],11.3
same,PF50,MDA-MB-231 [12],2.4
same,PF50,MDA-MB-231 [13],2.55
same,PF50,K562 [14],5.6
same,inhibition,HT-29 [15],Dose-Dependent Effect
same,inhibition in vivo at 15 mg/kg,COLO 205 [16],66%
same,inhibition in vivo at 20 mg/kg,COLO 205 [17],76%
same,inhibition in vivo at 12 mg/kg,COLO 205 [18],68%
same,inhibition in vivo at 4 mg/kg,COLO 205 [19],63%
same,inhibition in vivo at 12 mg/kg,COLO 205 [20],23%
same,inhibition in vivo at 20 mg/kg,COLO 205 [21],43%
same,inhibition in vivo at 24 mg/kg,COLO 205 [22],55%
same,inhibition in vivo at 7.5 mg/kg,COLO 205 [23],23%
same,inhibition in vivo at 15 mg/kg,COLO 205 [24],45%
same,inhibition in vivo at 30 mg/kg,COLO 205 [25],41%
same,inhibition in vivo at 30 mg/kg,COLO 205 [26],64%
same,T/C,COLO 205 [27],5.75
same,T/C,COLO 205 [28],13.25
same,LCK,COLO 205 [29],0.5
same,LCK,COLO 205 [30],0.5
same,LCK,COLO 205 [31],0.53
same,LCK,COLO 205 [32],1.25
same,LCK,COLO 205 [33],0.66
same,LCK,COLO 205 [34],1.21
same,Activity,[35],Non-Toxic
